# Laboratory results from PMC6954543, “A window-of-opportunity trial of the CXCR1/2 inhibitor reparixin in operable HER-2-negative breast cancer” (Breast Cancer Research : BCR, 2020).
# Key:
# CD18+ PMNs = assay: Adhesion molecule expression on peripheral blood PMNs by flow cytometry; assay type: in vivo, human; settings: after 21 days of treatment vs baseline; p < 0.05
# Experimental: The expression of adhesion molecules (CD11b, CD18, and CD66b) on PMNs was investigated. Typically, 100 µL of whole blood were incubated with 10nM CXCL8 for 10 minutes at room temperature to upregulate the expression of adhesion molecules. Untreated whole blood samples were included as control. We measured the percentage of PMNs that expressed CD11b, CD18, and CD66b as well as the Mean Fluorescence of Intensity (MFI) of each adhesion molecule as a measure of expression density by flow cytometry.
# [1] = test system: metastatic HER-2-negative BC; parameters: method as in PMID 28539464; settings: in combination with weekly paclitaxel, cited from earlier work
# P-AKT = P-AKT staining of core biopsies by IHC; assay type: in vivo, human; settings: day 21 (16/20 at baseline)
# Experimental: (§1) All IHC analyses and scoring for extent (0 to 4) and intensity (0 to 3) were performed at the Houston Memorial Hermann Pathology laboratory as previously described. After antigen retrieval (Tris-Cl, pH 9.0), paraffin-embedded sections of sample tumors were incubated for 1 h at room temperature with the following antibodies: anti-human CXCR1 (rabbit polyclonal to CXCR1 - C-terminal, ab137351; Abcam, Cambridge, MA), anti-human CD31 (clone JC70A, #IS610; Dako, Glostrup, Denmark), anti-human p62 (clone SQSTM1/p62, # 5114; Cell Signaling), anti-human AKT (rabbit polyclonal to pan-AKT, # ab8805; Abcam), anti-human FAK (clone pY861, #44-626G; Invitrogen, Qiagen, Carlsbad, CA), anti-human phospho-AKT (clone Ser473 (D9E), #4060; Cell Signaling), anti-human phospho-FAK (clone Y397, #ab4803; Abcam), and anti-human LC3B (clone D11, #3868; Cell Signaling). For the evaluation of extent, the following semi-quantitative score method (0 to 4) was used: 0, no positive cells; 1, 1–25%; 2, 26–50%; 3, 51–75%; and 4, 76–100%.
# [2] = test system: CXCL8 and other cytokines; assay: Serum cytokine levels (Milliplex/Luminex); assay type: in vivo, human; settings: day 1 vs day 21
# Experimental: The concentrations of interleukin (IL)-1β, IL-6, CXCL8, tumor necrosis factor (TNF)-α, granulocyte macrophage colony stimulating factor (GM-CSF), vascular endothelial growth factor (VEGF), and basic fibroblast growth factor (b-FGF) were measured in sera obtained from patients on days 1 and 21 of the study.
# In brief, serum cytokines levels were measured using a method, as previously published. Serum samples were processed and aliquoted within 24 hours for archiving at -80 °C. Samples were analyzed in batch using Milliplex bead kits (EMD Millipore Corporation, Billerica, MA) according to the manufacturer’s protocol with overnight incubations and an additional point added at the low end of the standard curve, and analyzed using a Luminex LX100 (Luminex Corporation, Austin, TX). BioPlex control and analysis software Version 5.0, (BioRad, Hercules, CA) was used.
# [3] = Safety of oral reparixin in window-of-opportunity trial (TEAEs, ANC); assay type: in vivo, human
# Source text: In this single-arm, monotherapy trial (NCT01861054), female patients aged ≥ 18 years with HER-2-negative operable breast cancer (with a clinical diameter of ≥ 2 cm) that were not candidates for neoadjuvant therapy were recruited. The protocol was amended later to allow inclusion of patients with HER-2-negative operable breast cancer with a clinical diameter of > 1 cm, not eligible for neoadjuvant treatment. Patients needed to have previously untreated, histologically proven (per local investigator assessment) ER+ and/or PgR+ or ER−/PgR− breast cancer (i.e., triple-negative BC (TNBC)) with adequate organ function.
# Patients were requested to take reparixin, an investigational orally available CXCR1/2 inhibitor, as two immediate-release 500-mg oral tablets every 6 to 8 h (every 8 h on the days of PK sampling) with food (a light meal or snack), for 21 consecutive days before surgery.
# Descriptive statistics were used to summarize safety variables (i.e., adverse events, physical examination, vital signs, ECG, laboratory data, concomitant medications).
# [4] = test system: human BC cell lines and xenografts; parameters: method as in PMID 20051626; settings: single agent and in combination with chemotherapy; cited from earlier work
# CXCR1 = CXCR1 expression on tumor cells by IHC; assay type: in vivo, human; settings: largest proportion at levels 4 and 3 at baseline; level 3 and 2 or lower at day 21
# Experimental: as §1
smiles,measurement,setting,value
CC(C)Cc1ccc([C@@H](C)C(=O)NS(C)(=O)=O)cc1 [reparixin],percentage of CD18+ PMNs following in vitro stimulation with CXCL8,CD18+ PMNs,decreased
same,long-lasting CR,[1]; 27 evaluable patients,2
same,response rate,[1]; 27 evaluable patients,30%
same,"gastrointestinal disorders, share of all TEAEs",[1]; all grade ≤ 2,39%
same,"Grade 3 treatment-related TEAE, share of all reports",[1],2.7%
same,"patients with value of 0 for P-AKT, extent and intensity",P-AKT,11/15
same,"other cytokines (IL-1β, IL-6, TNF-α, GM-CSF, VEGF, b-FGF), change",[2],No statistically significant changes
same,patients who experienced ≥ 1 TEAE related to the study drug,"[3]; 1000 mg t.i.d. oral, 21 days",Ten of 20
same,TEAEs leading to discontinuation,"[3]; 1000 mg t.i.d. oral, 21 days, 20 patients",no treatment-emergent adverse events (TEAEs) leading to discontinuation
same,delay of surgery due to study treatment,[3]; 20 patients,No patients had to delay surgery
same,serious adverse reactions,[3]; 20 patients,no serious adverse reactions
same,neutropenia / decrease in absolute neutrophil count (ANC),"[3]; ANC at weekly intervals, 10/20 patients",neither neutropenia of any grade nor any sustained decrease in ANC
same,grade of TEAEs related to the study drug,[3]; all related TEAEs,≤ 2 grade
same,TEAE grade 1 fatigue,[3]; of 20 patients,8 patients
same,TEAE nausea,[3]; of 20 patients,5 patients
same,TEAE related to study drug: fatigue,[3]; of 20 patients,4 patients
same,TEAE related to study drug: flatulence,[3]; of 20 patients,2 patients
same,TEAE related to study drug: headache,[3]; of 20 patients,2 patients
same,TEAE related to study drug: nausea,[3]; of 20 patients,2 patients
same,serious TEAE,"[3]; of 20 patients, unrelated to the study drug",1 patient
same,metastatic spread of human BC cells and CSC (ALDH+ and CD24−/CD44+) content,[4],reduced
same,"CXCR1 positivity, extent and intensity, change at day 21",CXCR1,decrease
